Assay results taken from patent US20240024647A1, “MUCOSA PERFORATION” (LTS LOHMANN THERAPIE-SYSTEME AG, priority 2020, published 2024).
Counter-ions that a name gives are not always drawn.

How the values were obtained:
[1] = In vitro permeation by Franz diffusion cells, dissolving microneedle system loaded with active ingredient, applied into the mucosa versus in reverse
Experimental: The following test series with the selected active ingredients in each case were performed within the scope of a typical in vitro permeation by means of Franz diffusion cells (volume 10 mL) at 37° C. The used acceptor medium was replaced completely for a new one at predetermined replacement times, and the content of permeated active ingredient amount in these acceptor solutions was determined by means of HPLC. […]
For preparation, sumatriptan succinate, polyvinylpyrrolidone, Polysorbate 80 and glycerol were dissolved in water with the proportions 5:20:1:1:73 (in each case in wt. %). The finished solution was poured into negative needle moulds made of silicone, the surface of which was coated with a thin platinum layer by vacuum metallisation. The negative moulds were then dried overnight at room temperature. The dried microneedle systems were carefully pressed out from the dies after the drying process and stored under exclusion of moisture until their further use. The active ingredient content was 4.25 mg sumatriptan succinate per 0.785 cm^2 of system or 5.41 mg/cm^2.
The length of the microneedles of the used microneedle system was 500 μm. A total of 600 microneedles were applied to an area of 0.785 cm^2 (microneedle density=764 per cm^2).
(§1) Dermatomised skin from the oesophagus of a pig with a layer thickness of 400 μm was used as skin model.
The microneedle system remained in the mucosa throughout the permeation period, the cell head additionally also having been filled with lead balls in order to simulate the in vivo contact pressure (for example between mandible and oral mucosa) in the oral cavity. As protection for the dissolving microneedle system, a separation film based on siliconised PET (polyethylene terephthalate) was also introduced in between in front of the lead balls.

[2] = Solubility of the active ingredient in the acceptor medium; format: physicochemical
[3] = In vitro permeation by Franz diffusion cells, mucosa with versus without steel microneedle system (AdminPatch)
Experimental: The following test series with the selected active ingredients in each case were performed within the scope of a typical in vitro permeation by means of Franz diffusion cells (volume 10 mL) at 37° C. The used acceptor medium was replaced completely for a new one at predetermined replacement times, and the content of permeated active ingredient amount in these acceptor solutions was determined by means of HPLC.
The contact pressure was 3 N by thumb pressure, monitored by means of a Roberval balance. The pressing time was 10 sec.
A total of 187 microneedles were applied to an area of 0.785 cm^2 (microneedle density=238 per cm^2).
For Example 4, the donor solution was injected (900 μl) onto or into the used dentistry tamponade (length and diameter 1 cm each). The microneedle system was fixed to the underside of the tamponade and was applied to the mucosa surface perpendicularly through the head of the Franz cells and fixed in a defined position by a suitable stopper and with moderate pressure.
Phosphate buffer (pH 5.5) was used as acceptor medium and an addition of 2 wt. % Tween® 20 was used as organic solvent to maintain “sink” conditions. (sink=current solubility at time t of an active ingredient in an acceptor medium of at most 30% of its saturation solubility in this acceptor medium)
A saturated solution of riociguat in clove oil (Primavera® clove bud organic essential oil, Oy-Mittelberg, Germany) was used as donor solution.
as §1
0.025 molar HEPES buffer (pH 7.4) was used as acceptor medium.
Phosphate buffer (pH 5.5) was used as acceptor medium and an addition of 2 wt. % Tween® 20 was used as organic solvent to maintain “sink” conditions. […]
The surface of the mucosa was treated with the “AdminPatch™” microneedle system (needle length 600 μm) from the company “nanobioSciences” (CA, USA) made of steel with a contact pressure of 3 N by thumb pressure, monitored by means of a Roberval balance for 10 sec. […]

[4] = dissolving microneedle system loaded with sumatriptan base, acceptor phosphate buffer pH 6.0 + 2 wt. % Tween 20, FIG. 9

CNS(=O)(=O)Cc1ccc2[nH]cc(CCN(C)C)c2c1 [sumatriptan base]
active ingredient flux in the comparative example (system applied in reverse, not penetrating into the mucosa) [1, 4]: not possible to measure an active ingredient flux | active ingredient flux with the microneedle system applied in the mucosa [1, 4]: high active ingredient flux could be observed | solubility in acceptor medium ([2]; phosphate buffer (pH 6.0) with 2 wt. % Tween 20): very easily dissolved

C=C(C)[C@@H]1CCC(C)=C[C@H]1c1c(O)cc(CCCCC)cc1O [cannabidiol]
active ingredient flux after pretreatment with a microneedle system, factor higher in comparison to administration without pretreatment ([3]; saturated cannabidiol solution in clove oil, dentistry tamponade with microneedle system, acceptor phosphate buffer pH 5.5 + 2 wt. % Tween 20, FIG. 4): 2.0

CNS(=O)(=O)Cc1ccc2[nH]cc(CCN(C)C)c2c1 [sumatriptan succinate]
first permeation value after 10 min, factor higher in comparison to the comparative example ([1]; pig, 10 min, pH 7.4): approximately 4 | active ingredient flux with the microneedle system applied in the mucosa, factor higher in comparison to the system without penetration into the mucosa ([1]; pig, pH 7.4): 2.0 | solubility in acceptor medium ([2]; phosphate buffer (pH 7.4) without further additives): very easily dissolved

CCCCCc1cc(O)c2c(c1)OC(C)(C)[C@@H]1CCC(C)=C[C@@H]21 [tetrahydrocannabinol]
time after which permeated active ingredient could be detected without pretreatment ([3]; saturated tetrahydrocannabinol solution in clove oil, acceptor phosphate buffer pH 5.5 + 2 wt. % Tween 20, FIG. 3): 3 h | permeated active ingredient without pretreatment, factor lower in comparison to pretreated mucosa ([3]; saturated tetrahydrocannabinol solution in clove oil, value after 3 hours, FIG. 3): 5

CC(=O)O[C@]1(C(C)=O)CC[C@H]2[C@@H]3CCC4=CC(=O)CCC4=C3[C@@H](c3ccc(N(C)C)cc3)C[C@@]21C [ulipristal acetate]
solubility in acceptor medium ([2]; phosphate buffer (pH 7.4) with 2 wt. % Tween 20): very easily dissolved

CN1CCc2cccc3c2[C@H]1Cc1ccc(O)c(O)c1-3 [apomorphine hydrochloride]
solubility in acceptor medium ([2]; phosphate buffer (pH 6.8) with 0.1 wt. % L-ascorbic acid): very easily dissolved
